Reference: ChEMBL document CHEMBL4152365, “Discovery of DS-6930, a potent selective PPARγ modulator. Part I: Lead identification” (Bioorg Med Chem, 2018)
≈ marks a conversion by molar mass, not a printed value.

Experiments:
[1] = biological target: T1, Peroxisome proliferator-activated receptor gamma (Homo sapiens) (UniProt P37231); test: Agonist activity at recombinant human GAL4-DBD fused PPARgamma LBD expressed in COS7 cells at 10 uM after 24 hrs by luciferase reporter gene assay relative to rosiglitazone; format: cell-based
T1 sequence (whole entry): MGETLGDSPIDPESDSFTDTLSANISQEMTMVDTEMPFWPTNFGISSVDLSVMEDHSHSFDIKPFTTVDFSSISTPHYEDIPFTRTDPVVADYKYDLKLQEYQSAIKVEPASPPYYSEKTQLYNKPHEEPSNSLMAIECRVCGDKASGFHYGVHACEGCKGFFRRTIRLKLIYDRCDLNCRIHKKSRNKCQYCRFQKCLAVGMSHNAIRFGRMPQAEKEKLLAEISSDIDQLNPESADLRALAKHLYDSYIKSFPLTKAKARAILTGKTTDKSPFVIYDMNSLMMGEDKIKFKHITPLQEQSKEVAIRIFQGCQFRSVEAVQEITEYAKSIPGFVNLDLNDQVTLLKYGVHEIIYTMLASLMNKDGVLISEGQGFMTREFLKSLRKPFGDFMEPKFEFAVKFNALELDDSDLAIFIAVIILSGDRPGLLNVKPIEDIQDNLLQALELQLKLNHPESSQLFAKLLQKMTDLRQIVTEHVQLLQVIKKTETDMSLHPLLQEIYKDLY

[2] = biological target: T2, Peroxisome proliferator-activated receptor gamma (Homo sapiens, UniProt P37231); test: Agonist activity at recombinant human GAL4-DBD fused PPARgamma LBD expressed in COS7 cells after 24 hrs by luciferase reporter gene assay; format: cell-based
T2 sequence (P37231 whole entry): T1 sequence (whole entry)

[3] = biological target: T3, Peroxisome proliferator-activated receptor alpha (Homo sapiens, UniProt Q07869); test: Agonist activity at recombinant human GAL4-DBD fused PPARalpha LBD expressed in COS7 cells after 24 hrs by luciferase reporter gene assay; format: cell-based
T3 sequence (Q07869 whole entry): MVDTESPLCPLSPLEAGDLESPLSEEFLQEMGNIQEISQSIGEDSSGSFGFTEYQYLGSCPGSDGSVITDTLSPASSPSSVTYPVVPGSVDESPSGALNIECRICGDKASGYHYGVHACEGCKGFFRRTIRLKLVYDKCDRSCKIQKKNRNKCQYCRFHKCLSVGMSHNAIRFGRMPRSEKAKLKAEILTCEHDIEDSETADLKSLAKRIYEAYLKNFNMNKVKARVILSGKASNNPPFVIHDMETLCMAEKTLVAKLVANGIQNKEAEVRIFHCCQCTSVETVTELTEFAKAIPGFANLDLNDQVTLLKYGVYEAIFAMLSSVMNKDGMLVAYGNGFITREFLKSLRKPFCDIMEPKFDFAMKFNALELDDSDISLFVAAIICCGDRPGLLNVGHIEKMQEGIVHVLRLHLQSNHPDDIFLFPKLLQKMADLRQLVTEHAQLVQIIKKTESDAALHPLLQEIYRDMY

[4] = Plasma concentration in hyperglycemic KK/Ta mouse at 30 mg/kg/day, po administered through diet for 3 days measured on day 3 post last dose; format: ADME, organism-based
[5] = test system: Mus musculus; test: Toxicity in hyperglycemic KK/Ta mouse assessed as body weight gain at 30 mg/kg/day, po administered through diet for 3 days relative to control; format: organism-based; details: in vivo, 72 h
[6] = Aqueous thermodynamic solubility of the compound in pH 6.8 solution up to 4 hrs by HPLC-UV analysis; format: physicochemical; details: read-out: Therm_solubility
[7] = test system: Mus musculus; test: Glucose-lowering effect in hyperglycemic KK/Ta mouse assessed as reduction in plasma glucose level at 30 mg/kg/day, po administered through diet for 3 days relative to control; format: functional; set-up: scale not given: the % may be the effect or the level left
[8] = biological target: T4, Peroxisome proliferator-activated receptor alpha (Homo sapiens) (UniProt Q07869); test: Agonist activity at recombinant human GAL4-DBD fused PPARalpha LBD expressed in COS7 cells at 10 uM after 24 hrs by luciferase reporter gene assay relative to 2-(4-tert-Butylphenoxy)-3-[4-[2-[(4-pyridin-2-ylbenzoyl)amino]ethoxy]; format: cell-based
T4 sequence (whole entry): T3 sequence (Q07869 whole entry)

[9] = 1-octanol/PBS distribution co-efficient, log D of the compound at […] at pH 7.4 after 30 mins by HPLC-MS/MS analysis; format: physicochemical
[10] = Metabolic stability in human liver microsomes after 0.5 hrs; format: ADME, microsome; details: read-out: Stability

| Structure (SMILES) | Emax [1] | EC50 [2] | EC50 [3] | concentration at 72 h [4] | Activity [5] | solubility thermodynamic at 4 h [6] | Activity [7] | Emax [8] | logD at 0.5 h [9] | remaining at 0.5 h [10] |
| --- | --- | --- | --- | --- | --- | --- | --- | --- | --- | --- |
| CC(=O)c1ccc(OCc2nc3ccc(Oc4cc(C)c(N)c(C)c4)cc3n2C)cc1 | 70% | 340 nM | – | – | – | – | – | – | – | – |
| Cc1cc(Oc2ccc3nc(COc4ccccc4)n(C)c3c2)cc(C)c1N | 73% | 318 nM | – | – | – | – | – | – | – | – |
| Cc1cc(Oc2ccc3nc(COc4ccc(C(=O)O)cc4)n(C)c3c2)cc(C)c1N | 91% | 797 nM | – | – | – | – | – | – | – | – |
| Cc1cc(Oc2ccc3nc(COc4ccc(C#N)cc4)n(C)c3c2)cc(C)c1N | 79% | 395 nM | – | – | – | – | – | – | – | – |
| Cn1c(COc2cccc(C(=O)O)c2)nc2ccc(Oc3cc(F)cc(F)c3)cc21 | 54% | 95 nM | > 10000 nM | 360 ng/mL | 4.4% | 10 µg/mL (≈ 24.4 µM) | 39.5% | 33% | 2.3 | – |
| Cl.Cn1c(COc2cccc(C(=O)O)c2)nc2ccc(Oc3ccc(F)c(Cl)c3)cc21 | 79% | 64 nM | – | 170 ng/mL | 3.7% | – | 30% | 52% | 2.8 | – |
| Cn1c(COc2cccc(C(=O)O)c2)nc2ccc(Oc3ccc4ccoc4c3)cc21 | 79% | 188 nM | > 10000 nM | 380 ng/mL | 2.5% | 0.8 µg/mL (≈ 1.93 µM) | 48.3% | 37% | 2.4 | 100% |
| Cc1cc(Oc2ccc3nc(COc4ccccc4C(=O)O)n(C)c3c2)cc(C)c1N | 52% | 6090 nM | – | – | – | – | – | – | – | – |
| Cc1cc(Oc2ccc3nc(COc4cccc(C#N)c4)n(C)c3c2)cc(C)c1N | 92% | 43 nM | – | – | – | – | – | – | – | – |
| Cc1cc(Oc2ccc3nc(COc4ccc(CC5SC(=O)NC5=O)cc4)n(C)c3c2)cc(C)c1N (stereo unspecified) [EFATUTAZONE] | 100% | 0.038 nM | – | – | – | – | – | – | – | – |
| Cl.Cn1c(COc2cccc(C(=O)O)c2)nc2ccc(Oc3ccc(F)c(F)c3)cc21 | 71% | 118 nM | > 10000 nM | 160 ng/mL | 3.4% | – | 56% | 39% | 2 | 100% |
| Cn1c(COc2cccc(C(=O)O)c2)nc2ccc(Oc3cccc(F)c3F)cc21 | 86% | 230 nM | – | – | 4.3% | – | 35.8% | 52% | 2.1 | 88% |
| Cc1ccc(F)cc1Oc1ccc2nc(COc3cccc(C(=O)O)c3)n(C)c2c1 | 84% | 39 nM | > 10000 nM | – | 5.1% | 0.6 µg/mL (≈ 1.48 µM) | 26.4% | 17% | 2.5 | 64% |
| Cn1c(COc2cccc(C(=O)O)c2)nc2ccc(Oc3cc(F)cc(Cl)c3)cc21 | 78% | 23 nM | > 10000 nM | 370 ng/mL | 3.1% | 0.9 µg/mL (≈ 2.11 µM) | 57.5% | 43% | 2.8 | 78% |
| Cn1c(COc2cccc(C(=O)O)c2)nc2ccc(Oc3c(F)cccc3F)cc21 | 76% | 1330 nM | > 10000 nM | – | – | – | – | 19% | 1.8 | 85% |
| Cc1cc(Oc2ccc3nc(COc4cccc(C(=O)O)c4)n(C)c3c2)cc(C)c1N.Cl.Cl | 73% | – | – | – | – | 11 µg/mL | – | – | 1.4 | 88% |
| Cc1cc(Oc2ccc3nc(COc4cccc(C(=O)O)c4)n(C)c3c2)ccc1F.Cl | 61% | 62 nM | > 10000 nM | 190 ng/mL | 3.5% | – | 49.4% | 28% | 2.3 | 69% |
| Cc1cc(Oc2ccc3nc(COc4ccccc4C#N)n(C)c3c2)cc(C)c1N | 80% | 391 nM | – | – | – | – | – | – | – | – |
| CC(=O)c1ccccc1OCc1nc2ccc(Oc3cc(C)c(N)c(C)c3)cc2n1C | 96% | 356 nM | – | – | – | – | – | – | – | – |
| CC(=O)c1cccc(OCc2nc3ccc(Oc4cc(C)c(N)c(C)c4)cc3n2C)c1 | 86% | 65 nM | – | – | – | – | – | – | – | – |
| Cc1cc(F)cc(Oc2ccc3nc(COc4cccc(C(=O)O)c4)n(C)c3c2)c1 | 84% | 21 nM | > 10000 nM | 190 ng/mL | 1.7% | 0.5 µg/mL (≈ 1.23 µM) | 58.3% | 29% | 2.7 | 100% |
| Cl.Cn1c(COc2cccc(C(=O)O)c2)nc2ccc(Oc3ccc4c(c3)CCO4)cc21 | 60% | 87 nM | > 10000 nM | – | – | 7.6 µg/mL | – | 8% | 1.7 | 87% |
| CCc1ccc2ccc(F)cc2c1CNC(=O)c1c(OC)cc(O)c2c1OC1=CC(O)=C(C(C)=O)C(=O)[C@]12C | 64% | 12 nM | – | – | – | – | – | – | – | – |
| COc1ccc2nc(COc3ccc(CC4SC(=O)NC4=O)cc3)n(C)c2c1 (stereo unspecified) [RIVOGLITAZONE] | 126% | 43 nM | – | – | – | – | – | – | – | – |
| Cn1c(COc2cccc(C(=O)O)c2)nc2ccc(Oc3ccc(F)cc3F)cc21 | 77% | 143 nM | > 10000 nM | 370 ng/mL | 3.7% | 11 µg/mL (≈ 26.8 µM) | 37.6% | 17% | 1.9 | 100% |
